What all share (assay type): biochemical
The target of assay [1] is T1, PARP-1 [poly(ADP-ribose) polymerase 1] (Homo sapiens, UniProt P09874). The assay is described as follows: Michaelis–Menten kinetics of ADP-ribose incorporation.
For assay [2], the target named is T1, PARP-1 [poly(ADP-ribose) polymerase 1]. Briefly: […]NAD+ automodification assay, single concentration of […].
For assay [3] the target is unchanged. The assay is described as follows: […]NAD+ automodification assay, % inhibition at […]. As to conditions: read-out: % reduction at 1 mM.
The target is the same in assay [4]. Briefly: […]NAD+ automodification assay with purified PARP-1.

For orientation: Km means the substrate concentration at which the rate is half of its maximum. One may read the Ki as the dissociation constant of the complex between target and ligand, obtained from inhibition or displacement. Read a high Ki as a looser hold on the target.

T1 sequence (P09874 2-1014): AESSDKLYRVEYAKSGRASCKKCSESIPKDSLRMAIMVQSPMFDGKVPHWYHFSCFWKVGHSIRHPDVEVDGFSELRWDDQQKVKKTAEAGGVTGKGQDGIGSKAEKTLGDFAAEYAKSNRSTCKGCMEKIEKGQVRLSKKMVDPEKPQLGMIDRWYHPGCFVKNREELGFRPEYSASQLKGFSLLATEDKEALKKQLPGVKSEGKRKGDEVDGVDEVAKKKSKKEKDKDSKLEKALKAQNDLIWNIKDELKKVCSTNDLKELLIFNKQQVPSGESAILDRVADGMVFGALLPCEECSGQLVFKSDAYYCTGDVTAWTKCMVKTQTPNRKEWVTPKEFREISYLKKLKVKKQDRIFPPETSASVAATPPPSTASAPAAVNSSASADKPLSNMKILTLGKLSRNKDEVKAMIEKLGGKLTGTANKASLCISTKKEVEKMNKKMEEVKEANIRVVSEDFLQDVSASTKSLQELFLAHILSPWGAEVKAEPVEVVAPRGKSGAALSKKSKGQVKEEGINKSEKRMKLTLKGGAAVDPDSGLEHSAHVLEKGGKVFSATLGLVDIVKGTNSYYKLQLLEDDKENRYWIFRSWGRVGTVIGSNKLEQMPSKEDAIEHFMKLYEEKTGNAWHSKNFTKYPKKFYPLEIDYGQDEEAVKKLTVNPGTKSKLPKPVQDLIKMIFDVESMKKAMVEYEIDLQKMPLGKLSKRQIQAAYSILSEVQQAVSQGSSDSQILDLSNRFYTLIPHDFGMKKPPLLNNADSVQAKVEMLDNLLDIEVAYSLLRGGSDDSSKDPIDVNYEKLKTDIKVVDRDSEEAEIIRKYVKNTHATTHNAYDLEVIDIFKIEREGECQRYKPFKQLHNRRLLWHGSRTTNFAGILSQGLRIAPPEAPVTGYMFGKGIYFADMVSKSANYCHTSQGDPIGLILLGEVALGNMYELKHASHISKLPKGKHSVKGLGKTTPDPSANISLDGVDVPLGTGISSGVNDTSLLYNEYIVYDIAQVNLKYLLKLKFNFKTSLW

As to `NC(=O)c1ccc[n+]([C@@H]2O[C@H](COP(=O)([O-])OP(=O)(O)OC[C@H]3O[C@@H](n4cnc5c(N)ncnc54)[C@H](O)[C@@H]3O)[C@@H](O)[C@H]2O)c1` [NAD^+], the Km in assay [1] fell in the range of 200 to 250 µM.

For the compound `Nc1ncnc2c1ncn2[C@@H]1O[C@H](COP(=O)(O)OP(=O)(O)OC[C@H]2OC(O)[C@H](O)[C@@H]2O)[C@@H](O)[C@H]1O` (stereo partly shown) [ADP-ribose], in assay [2], the “[32P]NAD+ automodification assay, single concentration of 50 μM” value is “With the exception of ADP-ribose, other adenine derivatives only inhibited PARP-1 to a limited extent”.

For `Nc1ncnc2c1ncn2[C@@H]1O[C@H](COP(=O)(O)OP(=O)(O)OP(=O)(O)O)[C@@H](O)[C@H]1O` [ATP], the inhibition at 1000 µM in assay [3] was around 25%.

For the compound `Nc1ncnc2c1ncn2[C@@H]1O[C@H](COP(=O)(O)O)[C@@H](OP(=O)(O)O)[C@H]1O` [pAp], the Ki in assay [4] was 500 to 1000 nM.

These data come from article PMC3316155 (2012).
